Entries after “also recorded” stand apart in the source; their conditions may differ.
Key:
M. tuberculosis isolates [1] = test system: M. tuberculosis isolates; parameters: species or system Mycobacterium tuberculosis
M. tuberculosis isolates [2] = format: cell-based, Mycobacterium tuberculosis
M. tuberculosis isolates [3] = format: cell-based, Mycobacterium tuberculosis; remark: listed apart in the source

| Structure (SMILES) | GenoType MTBDRplus (M. tuberculosis isolates [1]) | Genotype MTBDRplus result (M. tuberculosis isolates [1]) | Phenotypic susceptibility to bedaquiline (M. tuberculosis isolates [2]) | patients phenotypically and genotypically resistant to bedaquiline (M. tuberculosis isolates [3]) [%] |
| --- | --- | --- | --- | --- |
| NNC(=O)c1ccncc1 [Isoniazid] | R | low-level isoniazid resistance | – | – |
| COc1nc2ccc(Br)cc2cc1[C@@H](c1ccccc1)[C@@](O)(CCN(C)C)c1cccc2ccccc12 [bedaquiline] | – | – | phenotypically susceptible; also recorded: phenotypically resistant | 47 |
| CO[C@H]1/C=C/O[C@@]2(C)Oc3c(C)c(O)c4c(O)c(c(/C=N/N5CCN(C)CC5)c(O)c4c3C2=O)NC(=O)/C(C)=C\C=C\[C@H](C)[C@H](O)[C@@H](C)[C@@H](O)[C@@H](C)[C@H](OC(C)=O)[C@@H]1C [Rifampicin] | R | – | – | – |
